{"source": "patent US11262362B2", "about": "“2-hydroxyglutarate as a biomarker for chronic hypoxia” (MEMORIAL SLOAN KETTERING CANCER CENTER, priority 2011, dated 2022)", "test_system": "SF188 cells", "assay": "Viability of glutamine-starved SF188 cells in hypoxia (trypan blue dye exclusion)", "type": "cell-based, human", "conditions": "0.5% O2, glutamine-deficient medium supplemented with 7 mM dimethyl α-ketoglutarate, 48 h", "experimental": "In FIG. 2(A), SF188 cells were cultured for 24 h in complete medium equilibrated with either 21% O2 (Normoxia) or 0.5% O2 (Hypoxia). Culture medium was then removed from cells and analyzed for glutamine levels which were compared to the glutamine levels in fresh medium. Data are the mean±SEM of 3 independent experiments. […] Cells were cultured in complete medium equilibrated with 0.5% O2 for 24 h, followed by an additional 48 h at 0.5% O2 in either complete medium (+Gln), glutamine-deficient medium (−Gln), or glutamine-deficient medium supplemented with 7 mM dimethyl α-ketoglutarate (−Gln+αKG). All medium was pre-conditioned in 0.5% O2. Cell viability was determined by trypan blue dye exclusion. Data are the mean and range from 2 independent experiments. FIG. 2(C) depicts a model of the pathways for cit+4 and cit+5 production from [U-^13C]glutamine (glutamine+5). […] Cells were cultured for 24 h as in (A), followed by 4 h of culture in glutamine-deficient medium supplemented with 4 mM [U-^13C]glutamine. ^13C enrichment in cellular citrate was quantitated with GC-MS. […]\nSF188 and RCC4 cells were cultured in Dulbecco's Modified Eagle's Medium (DMEM; Invitrogen 11965), 10% fetal bovine serum (FBS; Gemini Biosystems), 100 units/ml Penicillin, 100 ug/ml Streptomycin, 25 mM glucose, and 6 mM L-glutamine. […] Viability was determined by trypan blue exclusion. […]"}
{"compound": "COC(=O)CCC(=O)C(=O)OC", "note": "[dimethyl α-ketoglutarate]", "values": [{"measurement": "cell viability upon glutamine withdrawal", "value": "rescued the defect in cell viability"}]}
